# Measurements reported in patent publication US5994406A, “Geminal cationic surfactants of the type Nα Nω bis (Nα-acyl-arginin) α,ω diamino alkyl dichlorohydrates as antimicrobial agents” (Consejo Superior Investigaciones Cientificas, priority 1995, dated 1999).
# Like-named read-outs stand apart in the source and are kept apart here.
# Columns and labels:
# [1] = test system: Alcaligenes faecalis ATTCC 8750; test: antimicrobial activity, minimum inhibitory concentration (MIC), organism 1; format: cell-based
# Description: (§1) The main properties of the surface activity in aqueous solution at 25° C. which define the practical interest of a surfactant; surface stress to the critical micellar concentration (γ) and critical micellar concentration (CMC) have been determined according to conventional methods. Likewise, the antimicrobial activity has been evaluated based on the inhibiting minimum concentration values (MIC) expressed in μg/mL following the most common methodologies. Table 1 indicates the values of […], CMC and MIC for two dimers of the same homologeous series; C4 (KA)2 (X=8,n=4) and C4 (LA)2 (X=10, n=4). For the purpose of comparisons in this same table the same values are indicated for the monocatenary compounds KAM and LAM respectively.
# 1. Alcaligenes faecalis ATTCC 8750
# [2] = test system: Streptococcus faecalis ATCC 10541; test: antimicrobial activity, MIC, organism 3; format: cell-based
# Description: as §1
# 3. Streptococcus faecalis ATCC 10541
# [3] = test system: Staphylococcus epidermidis ATCC 1551; test: antimicrobial activity, MIC, organism 6; format: cell-based
# Description: as §1
# 6. Staphylococcus epidermidis ATCC 1551
# [4] = surface activity: surface tension at the critical micellar concentration, aqueous solution 25° C; format: physicochemical; parameters: unit not given here
# Description: as §1
# [5] = test system: Bordeltella bronchiseptica ATCC; test: antimicrobial activity, MIC, organism 2; format: cell-based
# Description: as §1
# 2. Bordeltella bronchiseptica ATCC
# [6] = test system: Micrococcus luteus ATCC 9341; test: antimicrobial activity, MIC, organism 7; format: cell-based
# Description: as §1
# 7. Micrococcus luteus ATCC 9341
# [7] = critical micellar concentration (CMC), aqueous solution 25° C; format: physicochemical
# Description: as §1
# [8] = test system: Staphylococcus aereus ATCC 25178; test: antimicrobial activity, MIC, organism 5; format: cell-based
# Description: as §1
# 5. Staphylococcus aereus ATCC 25178
# [9] = test system: Bacilus subtilis ATCC 6633; test: antimicrobial activity, MIC, organism 4; format: cell-based
# Description: as §1
# 4. Bacilus subtilis ATCC 6633
SMILES,MIC [1] [µg/mL],MIC [2] [µg/mL],MIC [3] [µg/mL],surface stress (γ) at the critical micellar concentration [4],MIC [5] [µg/mL],MIC [6] [µg/mL],CMC [7] [mM],MIC [8] [µg/mL],MIC [9] [µg/mL],"MIC ([1]; ATTCC8750, read-out: MIC) [µg/mL]","MIC ([2]; Enterococcus faecalis, ATCC10541, read-out: MIC) [µg/mL]","MIC ([3]; ATCC1551, read-out: MIC) [µg/mL]",MIC ([5]; read-out: MIC) [µg/mL],"MIC ([6]; ATCC9341, read-out: MIC) [µg/mL]","MIC ([8]; ATCC25178, read-out: MIC) [µg/mL]",MIC ([9]; read-out: MIC) [µg/mL]
CCCCCCCCCCCC(=O)N[C@@H](CCCN=C(N)N)C(=O)OC [LAM],64,32,64,30.0,> 128,> 128,0.0037,64,> 128,–,–,–,–,–,–,–
"CCCCCCCCCC(=O)N[C@@H](CCCNC(=N)N)C(=O)NCCCCNC(=O)[C@H](CCCNC(=N)N)NC(=O)CCCCCCCCC [C4 (KA)2, Nα, Nω, Bis (Nα -Decanoilarginin) α,ω-Diaminobuthylamide]",–,–,–,25,–,–,7.8e-06,–,–,64,16,8,32,8,8,8
